According to publication PMC8248323 (Clinical Pharmacology in Drug Development, 2021):
Marks after values point to notes of the source that are not given here.

Assay: Phase 1 DDI study 004 part B: midazolam
Details: for effect of lemborexant coadministration on exposure: coadministration with lemborexant 10 mg; for AUC: human, plasma, Geometric LSM
[1] = with lemborexant / without lemborexant
[2] = coadministration of lemborexant with bupropion

SMILES | effect of lemborexant coadministration on exposure | effect of lemborexant coadministration on exposure (listed as midazolam) | AUC (AUC0‐inf, midazolam 2 mg + bupropion 75 mg + lemborexant 10 mg daily) [ng·h/mL] | AUC (AUC0‐inf, midazolam 2 mg + bupropion 75 mg, without lemborexant) [ng·h/mL] | AUC (AUC0‐t, midazolam 2 mg + bupropion 75 mg + lemborexant 10 mg daily (n = 28)) [ng·h/mL] | AUC (AUC0‐t, midazolam 2 mg + bupropion 75 mg single dose, without lemborexant (n = 27)) [ng·h/mL] | AUC0‐inf, Geometric Mean Ratio (90%CI) [1] | AUC0‐t, Geometric Mean Ratio (90%CI) [1] | Cmax, Geometric Mean Ratio (90%CI) [1] | AUC0‐t metabolite/parent ratio (bupropion with lemborexant) [%] | AUC0‐t metabolite/parent ratio (bupropion without lemborexant) [%] | decrease in AUC0‐t [2] [%] | decrease in Cmax [2] [%] | Cmax, Geometric LSM (midazolam 2 mg + bupropion 75 mg + lemborexant 10 mg daily) | AUC0‐t, Geometric LSM (midazolam 2 mg + bupropion 75 mg + lemborexant 10 mg daily (n = 28)) | AUC0‐t, Geometric LSM (midazolam 2 mg + bupropion 75 mg single dose, without lemborexant (n = 27)) [ng·h/mL] | Cmax, Geometric LSM (midazolam 2 mg + bupropion 75 mg, without lemborexant) [ng/mL]
Cc1ncc2n1-c1ccc(Cl)cc1C(c1ccccc1F)=NC2 [Midazolam] | not affected | did not have an effect | 24.1 | 21.4 | 22.9 | 20.2 | 1.130 (1.023–1.247) | 1.133 (1.025–1.253) | 1.126 (1.026–1.236) |  |  |  |  |  |  |  | 
C[C@@H]1NC(C)(C)CO[C@@]1(O)c1cccc(Cl)c1 [[S,S]‐hydroxylated bupropion] |  |  |  |  |  |  |  | 0.755 (0.661–0.862) | 0.829 (0.759–0.905) | 124 | 88.7 | 24.5 | 17 | 6.57 ^c ng/mL | 53.2 ^c ng·h/mL | 70.5 | 7.93
